Experimental data: publication PMC9645390, “Amphiphilic stilbene derivatives attenuate the neurotoxicity of soluble Aβ42 oligomers by controlling their interactions with cell membranes” (Chemical Science, 2022)

How the values were obtained:
[1] = biological target: Aβ oligomers; conditions: read-out: Kd, oligomer-selective probe; cited from earlier work
[2] = biological target: T1, Aβ42 oligomers (Homo sapiens, UniProt P05067); assay: Fluorescence saturation binding assay with Aβ42 oligomers
T1 construct: 1 mg of commercial Aβ42 monomer powder (from GL biochem) was dissolved in 1; purchased GL biochem
T1 sequence (P05067 672-713 limits assumed): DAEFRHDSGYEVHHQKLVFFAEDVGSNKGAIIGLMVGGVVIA
Procedure: (§1) Fig. 3 Binding constant measurements of ZY-5-OMe (left), ZY-5-MT (middle), ZY-5-DT (right) with Aβ42 fibrils (top), and oligomers (bottom). The measurements were performed in 10 mM phosphate buffered saline (PBS), pH 7.4. The Kd curves were fitted in GraphPad Prism with one site-specific binding model. Equation: Y = Bmax × X/(Kd + X). [Aβ42 fibrils] = [Aβ42 oligomers] = 5 μM.
(§2) Preparation of the Aβ42 Fibrils and Aβ42 Oligomers
(§3) Aβ42 fibrils: 1 mg of commercial Aβ42 monomer powder (from GL biochem) was dissolved in 1
(§4) mL 1,1,1,3,3,3-hexafluoro-2-propanol (HFIP) at room temperature and incubated for 1h. The
(§5) resulting solution was divided equally into two Eppendorf tubes. The solution in each Eppendorf
(§6) tube containing 0.5 mg Aβ42 monomer was then evaporated overnight and dried by vacuum
(§7) centrifuge to generate monomeric films. 100 μM Aβ42 fibrils solution was prepared by dissolving
(§8) the 0.5 mg monomeric films in 1.1 mL PBS buffer (with final DMSO concentration less than 1%)
(§9) and stiring at 37 °C for 3 days.
(§10) Aβ42 oligomers: The 0.5 mg monomeric films were dissolved in 1.1 mL PBS buffer (with final
(§11) DMSO concentration less than 1%) and incubated at 4 °C overnight. The resulting solution was
(§12) then centrifuged at 3000 rpm for 15 mins to remove the insoluble aggregates. The clear supernatant
(§13) was then used for the following experiments. […]
(§14) In Vitro Saturation Binding Studies with Aβ42 Fibrils and Aβ42 Oligomers
(§15) To a solution of increasing concentrations of compounds, a fixed concentration of the generated
(§16) aggregated Aβ42 fibrils or Aβ42 oligomers solutions (5 to 15 μM) was added to yield a total volume
(§17) of 100 μL. Nonspecific binding was determined without compounds. The mixture was incubated
(§18) for 15 min at room temperature. All fluorescence data were obtained on a SpectraMax M2e plate
(§19) reader (Molecular Devices).

[3] = biological target: T2, Aβ42 fibrils (Homo sapiens, UniProt P05067); assay: Fluorescence saturation binding assay with Aβ42 fibrils; conditions: Aβ42 fibrils
T2 construct: 1 mg of commercial Aβ42 monomer powder (from GL biochem) was dissolved in 1; purchased GL biochem
T2 sequence (P05067 672-713 limits assumed): as above
Procedure: as §1, §2, §3, §4, §5, §6, §7, §8, §9, §10, §11, §12, §13, §14, §15, §16, §17, §18, §19

[4] = biological target: T3, Aβ plaques in 5xFAD mice brain sections (Homo sapiens, UniProt P05067); assay: Fluorescence imaging of 5xFAD mouse brain sections, colocalization with Congo Red; conditions: 9-month-old 5xFAD brain sections; compound 5 μM, Congo red 2.5 μM
T3 construct: aggregated Aβ species were commonly observed in brain sections from 5xFAD transgenic mice; tissue Jackson Laboratories; host or cells: brain sections of 9-month-old 5xFAD transgenic mice
T3 sequence (P05067 672-713 limits assumed): as above
Procedure: (§20) In order to confirm that the compounds can also bind to native Aβ species, brain sections collected from 9-month-old 5xFAD transgenic mice have been employed in the fluorescence imaging studies. […] The brain sections were first incubated with our compounds, followed by Congo Red (CR), which is a well-established fluorescent probe that can bind to Aβ plaques.[34] The treated brain sections were then imaged using fluorescence microscope. […] Immunostaining with the CF594-conjugated HJ 3.4 antibody (CF594-HJ3.4) was also performed to confirm that these six compounds can bind to Aβ species specifically in the brain sections (Fig. 5). Moreover, the log D values of the compounds were also measured by octanol-PBS partition assays.[35]
Fig. 4 Fluorescence microscopy images of 5xFAD mice brain sections co-incubated with amphiphilic compounds (top), Congo red (middle) and merged images (bottom, along with the Parson's correlation coefficients R). Concentrations: [amphiphilic compounds] = 5 μM, [Congo red] = 2.5 μM; scale bar: 125 μm. TEXT PRINTED IN THE PICTURE: ZY-5-MT: Merged R= 0.84 | ZY-12-DT: Merged R= 0.52 | ZY-12-OMe: Merged R= 0.77 | ZY-15-OMe: Merged R= 0.77 | ZY-17-DT: Merged R= 0.77 | ZY-17-OMe: Merged R= 0.72 […]
Histological Staining of 5×FAD Mice Brain Sections
5xFAD transgenic mice brain sections were blocked with bovine serum albumin (2% BSA in PBS, pH 7.4, 10 min). Then the mice brain sections were transferred to a PBS solution of the compound and incubated for 1 h. After which, the brain sections were transferred to a PBS solution of Congo Red or antibody HJ 3.4 (Professor David Holtzman, 1 μg/ml) and incubated for another 1 h. Then, the brain sections were treated with BSA again (5 min) followed by washing with PBS (3 × 2 min), DI water (3 × 2 min). Finally, the mice brain sections were mounted with non-fluorescent mounting media, and the images were obtained by using EVOS FL Auto 2. ImageJ Fiji program was used for colocalization analysis and determination of the Pearson’s correlation coefficient. The primary

[5] = Log D by octanol-PBS partition assay; type: physicochemical; conditions: pH 7.4, fluorescence readout
Procedure: as §20, with “assays.[35] […]” for “assays.[35]”
The Log D value was measured following a published procedure using slight modifications.4 In general, compounds in 0.5 mL octanol was subjected to partition with 0.5 mL octanol-saturated
PBS. The whole mixture was stirred vigorously for 5 min, and centrifuged at 2,000 rpm for 5 min.
The top octanol layer was separated for later fluorescence measurement. The remaining PBS layer was partitioned with 0.5 mL PBS-saturated octanol, and the second top octanol layer was then separated after vigorous stirring and centrifuging at 2,000 rpm for another 5 min. The two octanol layers’ fluorescence spectra were recorded. The log D value was calculated by the fluorescence intensity ratio at the compounds’ emission wavelength for the above two octanol extractions. […]

[6] = Alamar Blue cytotoxicity assay in N2a cells; type: cell-based, mouse; conditions: mouse, N2a (Neuro2A) neuroblastoma cells, 40 h, read-out: cell viability
Procedure: (§21) After confirming these amphiphilic compounds can bind to Aβ species both in vitro and ex vivo, we next investigated whether these compounds could attenuate the toxicity of the Cu–Aβ species, as the Cu^2+ ions were reported to promote the formation of neurotoxic soluble Aβ42 oligomers.[45,46] Firstly, the Alamar Blue cell viability assay was used to measure the cytotoxicity of the compounds at different concentrations ranging from 20 μM to 2 μM in mouse neuroblastoma N2a cells (Fig. 8). […] Considering its high binding affinity to both Aβ fibrils and oligomers, we also further tested its ability to alleviate Cu^2+–Aβ42-induced toxicity. […] The underlying mechanism is unclear, but we propose that these compounds might perform similarly to the toxic oligomers that bind to some cell membrane receptors or insert into the membrane lipids to form porous channels.
(§22) Alamar Blue assay was chosen for the cytotoxicity studies.3 Mouse neuroblastoma Neuro2A (N2A) cells were grown with DMEM/10% FBS in a petri dish at 37 °C in a humidified atmosphere with 5% CO2. Then N2A cells were seeded in a 96-well plate (1.0 × 10^4/well). After 24 h incubation, cell media was changed to DMEM/N-2, and N2A cells were incubated for another 1 h. Then the cells were treated with different concentrations of compounds for 40 h, Alamar Blue solution (10 μL) was added, and the cells were incubated for another 90 min at 37 °C. The fluorescence intensity of each well was measured at 590 nm (excitation wavelength = 560 nm).
(§23) For the Cu2+-Aβ-induced toxicity studies, cells were treated monomeric Aβ42, Cu2+, monomeric Aβ42 + Cu2+, and monomeric Aβ42 + Cu2+ + compounds, monomeric Aβ42 + Cu2+ + copper chelators (Me2HTACN or Me3TACN), respectively. After 40 h incubation, Alamar Blue solution (10 μL) was added, and the cells were incubated for another 90 min at 37 °C. The fluorescence intensity of each well was measured at 590 nm (excitation wavelength = 560 nm). […]

[7] = system: mouse neuroblastoma N2a cells; assay: Alamar Blue cytotoxicity assay in N2a cells; type: cell-based; conditions: 2 to 20 μM
Procedure: as §21, §22, §23

With `CCOc1cccc(C=Cc2cc(C)c3n2[B-](F)(F)[N+]2=C(CCC(=O)OCC(Cl)(Cl)Cl)C=CC2=C3)c1O` [BD-Oligo] as the molecule, how does the Kd [1] read?
Its Kd is 480 nM.

For `CCN(CC)c1ccc(/C=C/C2=[O+][B-](F)(F)OC(/C=C/c3ccc(N(CC)CC)nc3)=C2CCCOc2c(C)cccc2C)cn1` [CRANAD-102], which Kd [1] is on record?
Its Kd is 7.5 ± 10 nM.

With `COCCOCCn1c2ccc(F)cc2c2cc(/C=C/c3cc[n+](CCO)c4ccccc34)ccc21` [F-SLOH] as the molecule, how does the Kd [1] read?
The Kd was 660 nM.

With `COc1cc(-c2ccc(/C=C/c3ccc(N(C)C)cc3)s2)cc(CN2CCN(C)CCN(C)CC2)c1O` [ZY-12-OMe] as the molecule, how does the Kd ([2]; Aβ42 oligomers, 10 mM PBS pH 7.4, one site-specific binding model) read?
Its Kd is 320 nM.

And the “binding ratio, Oligomers” value ([2]; Aβ42 oligomers, from cross point between plateau and initial slope)?
The value was 10.2.

What about the “binding preference oligomers vs fibrils (from Kd values)” value ([2]; lower Kd for Aβ oligomers than Aβ fibrils) of the same molecule?
The value was “higher binding affinity to oligomers over fibrils”.

What about the Kd ([3]; 10 mM PBS pH 7.4, one site-specific binding model, read-out: Kd, Fibrils) of the same molecule?
The Kd was 390 nM.

And the “binding ratio, Fibrils” value ([3]; from cross point between plateau and initial slope)?
The value was 8.5.

And the “Pearson's correlation coefficient R, colocalization with Congo Red” value [4]?
Its value is 0.77.

And the logD [5]?
The logD was 1.17 ± 0.026.

And the viability at 40 h, 5 µM ([6]; at 5 μM)?
Its viability at 40 h, 5 µM is greater than 75%.

What about the viability at 40 h, 10 µM ([6]; at 10 μM) of the same molecule?
The viability at 40 h, 10 µM was less than 50%.

And the “cytotoxicity (in words)” value [7]?
The value was “higher cytotoxicity than others”.
